# From a melting point compilation (Tetko et al.; mined from patent text by program, amines drawn as free bases though some values may be those of a salt)
row,SMILES,melting point [°C]
1,Fc1cccc(F)c1-c1ncc(-c2ccc(-c3ccc(OC(F)(F)F)cc3)cc2)cn1,215 to 216
2,O=C(O)CCC(=O)NCCCCCC1CCSS1 (centres undefined),74
3,CO/C(=C\C=C\c1cc2cc(Br)ccc2[nH]1)C(=O)O,208 to 210
4,CNc1nc(NC)nc(NC)n1,133
5,COc1cccc([C@H]2O[C@H](CC(=O)Nc3cccc(CCCCC(=O)O)c3)C(=O)N(CC(C)(C)CO)c3ccc(Cl)cc32)c1OC,117 to 119
6,CC(=O)c1sc(N2CCN(CCCC(F)(F)F)C2=O)nc1C,108 to 110
7,CCCc1nc(Nc2cccc(N(C)C)c2)nc(NC2CCN(S(C)(=O)=O)CC2)n1,134 to 136
8,O=[N+]([O-])c1ccc(-n2cncn2)cc1F,90 to 91
9,COc1cccc(NC(=N)Nc2cccc(OC)c2)c1,134 to 135
10,CCCP(=O)(CCC)Cc1ccc(NC(=O)/C=C/c2cccc(-c3ccc(C)cc3)c2)cc1,225 to 227
11,O=c1c2cccnc2n(-c2cccc([N+](=O)[O-])c2)c(=O)n1Cc1ccccc1,219 to 220
12,CN(C)CC(C)(C)Oc1ccc(Nc2cc(-c3cccc(-n4ncc5cc(C(C)(C)C)cc(F)c5c4=O)c3CO)nn(C)c2=O)nn1,140 to 145
13,CN1CC(=O)Nc2ccc(Cl)cc2C1=O,> 250
14,C=CCOCCCCOc1ccc2c(c1)Cc1cc(C(C)=O)ccc1-2,77
15,O=S(=O)(NCC(O)(Cn1cncn1)c1ccc(Cl)cc1Cl)c1ccc2ccccc2c1 (centres undefined),179 to 180
16,O=c1oc2ccccc2s1,25.8 to 27
17,Cc1ccc(S(=O)(=O)NCCOS(=O)(=O)c2ccc(C)cc2)cc1,89 to 90
18,COC(=O)c1ccc(C#CC(O)c2cc(C(C)(C)C)c(OCOCC[Si](C)(C)C)c(C(C)(C)C)c2)cc1 (centres undefined),91 to 92
19,CC(C)(C)OC(=O)NC(Cc1ccccc1)C(O)CNCC(O)C(Cc1ccc(OCc2ccccc2)cc1)NC(=O)OCc1ccccc1 (centres undefined),154 to 156
20,CCCn1c(COCC)nc2c(N)nc3ccc(OCCNC(=O)N4CCOCC4)cc3c21,203 to 208
21,Cc1cc(S(=O)(=O)Cl)c(C)c(S(=O)(=O)Cl)c1,24 to 27
22,Cc1ccc(S(=O)(=O)NN=CC(=O)Cl)cc1,100 to 110
23,CCn1c(=O)c2c(-c3nc(C)no3)ncn2c2cccnc21,251 to 252
24,CN(c1cc(OC(F)(F)F)cc2cc(C3=NCC(CCO)S3)[nH]c12)S(=O)(=O)c1cccs1 (centres undefined),152 to 153
25,C[C@H]1[C@@H]2C(=O)N(Cc3ccccc3)C(=O)[C@@H]2[C@H](c2ccc(C#N)cc2)N1C (racemic),188 to 190

row,SMILES,melting point [°C]
1,CN(C)S(=O)(=O)c1ccc2ccc3ccccc3c(=O)c2c1,130 to 136
2,COC(=O)c1ccc(-c2nn(Cc3ccccc3)c3ccc([N+](=O)[O-])cc23)o1,134 to 135
3,NC(=O)NN=Cc1ccc(Oc2ccncc2)cc1,212 to 213
4,CC(C(=O)O)(c1ccc(OCc2ccc3ccccc3n2)cc1)c1ccc(OCc2ccc3ccccc3n2)cc1,208 to 210
5,CC(=O)Nc1c(C(=O)c2cccc(F)c2)[nH]c2cc(Cl)ccc12,201 to 202
6,COC(=O)c1nn(Cc2cccc(OC)c2)c2c1CCc1cc(OCc3cncnc3)ccc1-2,184
7,CC(C)(C)OC(=O)CN1CC(c2ccco2)SCC(N)C1=O (centres undefined),90 to 92
8,CCCc1nc2c(N)nc3cc(-c4cccnc4)ccc3c2n1CCCCNC(=O)OC(C)(C)C,136 to 138
9,CC1Nc2ccccc2N(Cc2ccccc2)C(=O)C1Cc1ccccc1 (centres undefined),140 to 141
10,COC(CN(c1nc2ccccc2o1)[C@H]1c2cc(C#N)ccc2OC(C)(C)[C@@H]1O)OC,66
11,C=C(C)n1c(=O)n(CC2CN(Cc3ccccc3)CCO2)c2ccccc21 (centres undefined),117
12,CC(N1C(=O)C(=O)N(c2ccc(C#N)cc2)C1=S)C(C)(C)C (centres undefined),198
13,CC(=O)Cc1ccc(Oc2ccc(Cl)cc2)cc1,50 to 52
14,Cn1ccc2ccc(-c3ccc(C(F)(F)F)cc3)cc21,100
15,FC(F)Sc1nc2ncccc2s1,41 to 43
16,CCc1cccc(C)c1CNc1cc(C(=O)N2CCCC2)cc2c1nc(C)n2C,126
17,O=C(O)CSC(CCc1ccccc1)c1ccc(OCc2ccc3ccccc3n2)cc1 (centres undefined),117 to 118
18,CCn1c(SC)cc2ccccc2c1=O,80 to 82
19,N#CCCNC(=O)c1n[nH]cc1NC(=O)c1ccccn1,223 to 224
20,O=C(O)c1ccc(S(=O)(=O)CCCl)cc1,142 to 144
21,CCOC(=O)C[C@@H]1c2ccccc2O[C@H]1c1ccccc1 (relative stereo),42 to 43
22,CC(=O)c1ccc2c(c1)C(C(Cl)(Cl)Cl)OC(C(Cl)(Cl)Cl)O2 (centres undefined),104 to 105
23,CCOC(Nc1ccc(C(=O)O)cc1)C(=O)c1ccc(Oc2ccc(Cl)c3ccccc23)cc1 (centres undefined),155 to 165
24,CC(C)C(=O)NC1C(OCc2ccccc2)=CC=CC1(Br)[N+](=O)[O-] (centres undefined),197 to 198
25,CON=C(c1ccccc1COc1cccc(Cl)c1)n1ccnc1,96.5 to 97.5

row,SMILES,melting point [°C]
1,Cc1cccc(C)c1N1C(=O)CN(C(C)C)C1=S,135 to 137
2,CCCCS(=O)(=O)c1ncn(C(=O)N(CCC)CCC)n1,38.5 to 39.5
3,CCn1c(O)cc(C)c(C#N)c1=O,230 to 237
4,Cn1nc(C(F)(F)F)cc1Oc1cc(C#N)cc(OCc2ccc(F)cc2F)n1,109
5,CCOC(=O)c1cnc2c(c1O)CC(C)CC2 (centres undefined),228 to 231
6,CN(C)C=Nc1cnc(-c2cccc(CO)c2)nc1,105 to 106
7,CCCCCCCCCC#Cc1ccnc(C(=O)O)c1,93 to 94
8,C=COC(=O)n1c(SCc2ccc(C)cn2)nc2cscc21,78 to 80
9,O=C1OC(c2ccccc2)(c2ccccc2)C2CN(S(=O)(=O)/C=C/c3ccc(F)cc3)CCN12 (centres undefined),248 to 249
10,CC(=O)OCC1(C)OCC2(CO1)COC(C)(COC(C)=O)OC2 (centres undefined),66 to 67
11,CC(=O)CC(=O)Nc1nc2ccc(NC(C)=O)cc2s1,248 to 250
12,COC(=O)c1c(C(F)F)nc(C(F)(F)F)c(C(=O)OC)c1O,83 to 84.5
13,CC[Si](CC)(CC)OC1C(=O)NC1c1cccs1 (centres undefined),70 to 71
14,CCCn1c(=O)c2[nH]c(/C=C/c3ccc(Cl)c(Cl)c3)nc2n(CCC)c1=O,195 to 202
15,CCOC(=O)C(C)Oc1ccc(Nc2cnc3cc(Cl)ccc3n2)cc1 (centres undefined),136
16,"O=C(CCN1CCNC1=O)N1CCC(C2c3ncc(Br)cc3CCc3cc(Cl)cc(Br)c32)CC1 (single isomer, unassigned; (+))",202 to 203
17,CCOC(=O)c1ccc(NC(=O)NCCn2c(C)ccc2C)cc1,181 to 182
18,CCCCCCCCCCCCCCCCNC(=O)c1cc(O)cc(O)c1,154 to 156
19,CS(=O)(=O)Nc1ccc(CCN2CCN(c3ccc(NS(C)(=O)=O)c(F)c3)CC2)cc1,232 to 234
20,NC(=O)c1sc2nc(N3CCC(NCC(O)c4ccccn4)CC3)cc(C(F)(F)F)c2c1N (centres undefined),165 to 167
21,CCCCOc1nc(N)c2[nH]c(=O)n(CCNc3cccc(CC(=O)OC)c3)c2n1,222 to 223
22,CCOC(=O)C(=NOC)C1=CSc2ccccc2O1,78 to 80
23,CCCCCC1C=CC(c2ccc(C(F)(F)F)cc2)=CC1 (centres undefined),54
24,CCCCCCCCCCCCCCS(=O)(=O)NC(=O)Nc1c(C(C)C)cccc1C(C)C,135 to 137
25,Cc1cc(-c2cc(C(F)(F)F)n3ncc(-c4nc(-c5ccnc(N)c5)no4)c3n2)ccc1C(F)(F)F,245

row,SMILES,melting point [°C]
1,CC(=NNC(=O)c1ccccc1)c1ccccn1,152
2,C#CCCCn1ncc2c(OCC)c(C(=O)OCC)cnc21,84 to 85.5
3,Cc1nc(C(=O)O)c(OCc2ccccc2)c(=O)n1C,180 to 181
4,CCOP(=O)(/C=C/c1cn(-c2ccccc2)nc1OCc1ccc(OCc2coc(-c3ccco3)n2)c(OC)c1)OCC,96 to 97
5,COC(=O)[C@H](Cc1ccc(-c2cn(C)c(=O)n(C)c2=O)cc1)NC(=O)c1c(C)cccc1Cl,155 to 157
6,CCC(=O)c1cc(C(=O)O)c2cc(Cc3ccc(F)cc3)cnc2c1O,235 to 237
7,CN(C)CCC1CCC2(CC1)Nc1ccc(Cl)cc1S(=O)(=O)N2 (centres undefined),234 to 235
8,CC1Nc2ccc(-c3csc(C#N)c3)cc2C(C)(C)O1 (centres undefined),175 to 176
9,O=c1[nH]c(NCCc2c[nH]cn2)nc2c1ncn2C1CC(O)C(CO)O1 (centres undefined),220 to 222
10,ON=C1CCC(C2CCCC2)=C1c1cccc(O)c1,207 to 209
11,NS(=O)(=O)c1ccc(-c2cc(-c3nc(-c4ccc(C(F)(F)F)cc4)cc(C(F)F)n3)ccn2)s1,242
12,CCCC(=O)c1cc2c(OCC)cc(C(=O)OCC)nc2cc1C,123 to 124
13,N#CCCSN1C(=O)CCC1=O,110 to 112
14,COC(=O)CCCc1cc2nc(Cl)ccc2n1S(=O)(=O)c1cccc(C(C)C)c1,92
15,COc1ccc(C(O)(CC(=O)N2CCOCC2)c2ccc(Cl)cc2)cc1OC (centres undefined),150
16,Cc1cc2nc(Cl)cc(NCc3c(C)cccc3C)c2[nH]1,310 to 312
17,COC(=O)C(c1ccccc1)(c1ccccc1)c1c[nH]c(C)n1,136
18,CN(C)C(=S)Sc1cc(=O)n(Cc2ccccc2)s1,184 to 186
19,CC(C)(C)OC(=O)NCC(CNC(=O)OC(C)(C)C)OS(C)(=O)=O,127
20,N#Cc1ccc(N2C(=O)N(CCCC(=O)O)C3(CCOCC3)C2=O)cc1C(F)(F)F,151 to 152
21,Cn1nc(-c2ccc(Cl)cc2)c2ccccc2c1=O,151 to 152
22,CN1CCC(Cn2nc(-c3c(-c4ccccc4)nn4ccccc34)ccc2=O)CC1,180 to 181
23,COc1c(N)ccc2c1C(=CC#N)CC2,140 to 142
24,Cc1c(C)c2c(c(C)c1O)CCC(C)(C(=O)N1CCC(c3ccc(N)cc3)CC1)O2 (centres undefined),153 to 154
